The values that follow come from patent US4503068A, “Use of prostaglandin analogues to treat cytodamage” (priority 1982, dated 1985).

Each structure is given as a SMILES string. Read-outs that look alike come from different tables or passages of the source.

The test system of series [1] is carbon tetrachloride (CCl4) induced liver damage. The experiment in a line: Effect on carbon tetrachloride (CCl4) induced liver damage (liver cell necrosis type). The format is in vivo, Male Wistar rats. The settings on record: Rattus norvegicus; for inhibition in vivo at 1 mg/kg: 1000 μg/kg 6 and 12 hr after CCl4; for inhibition in vivo at 0.5 mg/kg: 500 μg/kg 6 and 12 hr after CCl4; for inhibition in vivo at 2 mg/kg: 2000 μg/kg 6 and 12 hr after CCl4; for inhibition in vivo at 0.05 mg/kg: 50 μg/kg 6 and 12 hr after CCl4; for inhibition in vivo at 0.1 mg/kg: 100 μg/kg 6 and 12 hr after CCl4; for inhibition in vivo at 0.02 mg/kg: 20 μg/kg 6 and 12 hr after CCl4. On the procedure:
Effect on carbon tetrachloride (CCl4) induced liver damage (liver cell necrosis type)
Male Wistar rats weighing 180-220 g were used. Rats were dosed intraperitoneally with CCl4 dissolved in olive oil (5% w/v) at a volume of 500 μl/kg after 18 hr starvation. The compound under test was administered orally (p.o.) or subcutaneously (s.c.) 6 and 12 hr after CCl4 injection in rats and blood was collected after 24 hr. Plasma glutamic oxaloacetic transaminase (GOT) and glutamic pyruvic transaminase (GPT) activities were determined by ultraviolet absorbance methods (optimised method based on the recommendations of the Deutsche Gesellschaft f/u/ r Klinische Chemie). The effects of the compounds tested were assessed by the inhibition rate in comparison with controls. Inhibition rate was calculated by the following formula. [formula]
(§1) In Tables 1 to 4 hereinafter the dose shown is the amount given at each administration of the compound under test.

In series [2] the test system is α-naphthylisothiocyanate-induced liver damage. Kind of series: Effect on α-naphthylisothiocyanate-induced liver damage (cholangioatresia type). The format is in vivo, Male Wistar rats. Conditions: p.o., blood after 24 hr. On the procedure:
as §1
Effect on α-naphthylisothiocyanate-induced liver damage (cholangioatresia type)
Male Wistar rats weighing 190-220 g were used. After rats had fasted for 18 hr, α-naphthylisothiocyanate (ANIT) dissolved in olive oil (1.5% w/v) was given orally to them at 30 mg/kg body weight. The compound under test was administered orally 30 min before and 6 and 12 hr after administration of ANIT and blood was collected after 24 hr. Plasma GOT, GPT and bilirubin activities were determined and the results given in Table 3 show the inhibition rate compared with controls (calculation by the formula shown in Experiment 1).

Series [3] can be described thus: in vivo. The settings on record: mouse, mice, oral, observed for 14 days. On the procedure: Male JCL-ICR mice (non SPF mice) from 7 weeks of age were used. The compound under test was dissolved in 5% v/v ethanol containing 0.4% w/v Tween 80 (Tween is a registered trademark) and administered orally to the mice.
Series [4] relates to D(+)-galactosamine hydrochloride-induced liver damage. Kind of series: Effect on D(+)-galactosamine hydrochloride-induced liver damage (hepatitis type). The format is in vivo, Male Wistar rats. The settings on record: p.o. The procedure:
as §1
Effect on D(+)-galactosamine hydrochloride-induced liver damage (hepatitis type)
Male Wistar rats weighing 180-200 g were used. After the rats had fasted for 18 hr, 375 mg/kg galactosamine hydrochloride was administered to them intraperitoneally two times at 6 hr intervals. The compound under test was administered orally, 30 minutes before and, 6, 12 and 24 hr after the dose of D(+)-galactosamine hydrochloride and blood was collected after 24 and 48 hr. Plasma GOT and GPT activities were determined in the manner described in Experiment 1; plasma bilirubin activities were also determined. The effects were shown by the inhibition rate compared with controls (calculation by the formula shown in Experiment 1).

The test system of series [5] is diet-induced acute pancreatitis. The settings on record: mice; cited from earlier work.
The test system of series [6] is carbon tetrachloride-induced liver cell necrosis. The settings on record: in vivo; cited from earlier work.
The test system of series [7] is acute galactosamine-induced liver damage. Conditions: in vivo; cited from earlier work.
The mark [8] stands for this setting: sc, plasma GOT after 24 hr, read-out: inhibition rate, GOT.
Setting [9] is: sc, plasma GPT after 24 hr, read-out: inhibition rate, GPT.
The mark [10] stands for this setting: po, plasma GOT after 24 hr, read-out: inhibition rate, GOT.
Setting [11] is: po, plasma GPT after 24 hr, read-out: inhibition rate, GPT.

`O=C(CO)CCCC[C@H]1C[C@@H]2[C@@H](/C=C/[C@@H](O)C3CCCC3)[C@H](O)C[C@@H]2O1` [Compound 10, 2-decarboxy-2-glycoloyl-15-cyclopentyl-16,17,18,19,20-pentanor-6S-PGI]: the inhibition in vivo at 1 mg/kg was 11.8% in series [1] (setting [8]) and 0% in series [1] (setting [9]).
As for `CCCC[C@H](C)C[C@H](O)/C=C/[C@@H]1[C@H]2C[C@H](CCCCC(=O)OC)O[C@H]2C[C@H]1O` [Compound 6, 17S,20-dimethyl-6S-PGI1 methyl ester], in series [2] (2000 μg/kg per administration), the “inhibition, GOT” value is 40.9%; the “inhibition, GPT” value came to 44.6%; the “inhibition, bilirubin” value came to 33.3%. In series [1] (setting [8]), the inhibition in vivo at 0.5 mg/kg worked out at 55.3%. Further, in series [1] (setting [9]), the inhibition in vivo at 0.5 mg/kg is 64.6%. The compound further had an LD50 at 336 h in series [3] of over 50 mg/kg. Also, in series [4] (2000 μg/kg per administration), the “inhibition rate, GOT 24 hr after” value is given as 50.2%; the “inhibition rate, GPT 24 hr after” value amounted to 37.8%; the “inhibition rate, bilirubin 24 hr after” value was 31.8%; the “inhibition rate, GOT 48 hr after” value is 25.5%. In series [4] (2000 μg/kg per administration), the “inhibition rate, GPT 48 hr after” value is listed as 21.4% and the “inhibition rate, bilirubin 48 hr after” value was found to be 19.2%.
As to `OCCCCC[C@H]1C[C@@H]2[C@@H](/C=C/[C@@H](O)C3CCCC3)[C@H](O)C[C@@H]2O1` [Compound 12, 15-cyclopentyl-16,17,18,19,20-pentanor-6S-PGI1 alcohol], the inhibition in vivo at 2 mg/kg in series [1] (setting [10]) is 7.4%; in series [1] (setting [11]), 44.1%.
For `CCCC[C@H](C)C[C@H](O)/C=C/[C@H]1[C@H](O)CC(=O)[C@@H]1CC(=O)CCCCCO` [Compound 5, 17S,20-dimethyl-6-oxo-PGE1 alcohol], in series [2] (100 μg/kg per administration), the “inhibition, GOT” value stood at 54.1%; the “inhibition, GPT” value was 53.1%; the “inhibition, bilirubin” value amounted to 41.7%. Moreover, the inhibition in vivo at 0.05 mg/kg in series [1] (setting [10]) came out at 56.6%. For the same compound, the inhibition in vivo at 0.05 mg/kg in series [1] (setting [11]) was 59.1%. Also, the LD50 at 336 h in series [3] was over 10 mg/kg.
For the compound `CCCCC[C@H](O)/C=C/[C@H]1[C@H](O)CC(=O)[C@@H]1C/C=C\CCCC(=O)O` [PGE2], in series [5], the “effect against diet-induced acute pancreatitis” value is reported as “effective”.
Take `CCCC[C@H](C)C[C@H](O)/C=C/[C@@H]1[C@H]2C[C@H](CCCCC(=O)CO)O[C@H]2C[C@H]1O` [Compound 9, 2-decarboxy-2-glycoloyl-17S,20-dimethyl-6S-PGI1]: the values for the inhibition in vivo at 0.5 mg/kg in series [1] (setting [8]) and in series [1] (setting [9]) were 58.4% and 51.4%, respectively. Besides, the LD50 at 336 h in series [3] was over 50 mg/kg.
For `CCCCC(C)(C)[C@H](O)/C=C/[C@H]1[C@H](O)CC(=O)[C@@H]1C/C=C\CCCC(=O)O` [16,16-dimethyl-PGE2], the “prevention of carbon tetrachloride-induced liver cell necrosis” value in series [6] is on record as “prevents”. The “prevention of acute galactosamine-induced liver damage” value in series [7] is on record as “prevents”.
`CCCC[C@H](C)C[C@H](O)CC[C@H]1[C@H](O)CC(=O)[C@@H]1CC(=O)CCCCC(=O)OC` [Compound 4, 17S,20-dimethyl-13,14-dihydro-6-oxo-PGE1 methyl ester]: the results for the inhibition in vivo at 0.1 mg/kg in series [1] (setting [10]) and in series [1] (setting [11]) were 52.1% and 62.3%, respectively. In series [3], this compound showed an LD50 at 336 h of over 10 mg/kg.
Turning to `CCCCC[C@](C)(O)/C=C/[C@H]1[C@H](O)CC(=O)[C@@H]1CC(=O)CCCCC(=O)O` [Compound 3, 15S-methyl-6-oxo-PGE1], the inhibition in vivo at 0.1 mg/kg in series [1] (setting [10]) was found to be 6.8%; in series [1] (setting [11]) it was 13.2%.
Regarding `CCCC[C@H](C)C[C@H](O)/C=C/[C@H]1[C@H](O)CC(=O)[C@@H]1CC(=O)CCCCC(=O)OC` [Compound 2, 17S,20-dimethyl-6-oxo-PGE1 methyl ester], in series [2] (100 μg/kg per administration), the “inhibition, GOT” value amounted to 39.6%; the “inhibition, GPT” value was 41.9%; the “inhibition, bilirubin” value is on record as 37.5%. Moreover, the inhibition in vivo at 0.05 mg/kg in series [1] (setting [10]) amounted to 61.5%. In addition, the inhibition in vivo at 0.05 mg/kg in series [1] (setting [11]) was found to be 44.1%. The inhibition in vivo at 0.02 mg/kg in series [1] (setting [8]) stood at 37.9%. For the same compound, the inhibition in vivo at 0.02 mg/kg in series [1] (setting [9]) amounted to 34.6%. Further, in series [4] (100 μg/kg per administration), the “inhibition rate, GOT 24 hr after” value stood at 29.5%; the “inhibition rate, GPT 24 hr after” value was found to be 6.7%; the “inhibition rate, bilirubin 24 hr after” value amounted to 24.2%; the “inhibition rate, GOT 48 hr after” value stood at 32.7%. In addition, in series [4] (100 μg/kg per administration), the “inhibition rate, GPT 48 hr after” value stood at 23.5% and the “inhibition rate, bilirubin 48 hr after” value worked out at 34.6%.
In the case of `CCCC[C@H](C)C[C@H](O)/C=C/[C@@H]1[C@H]2C[C@H](CCCCCO)O[C@H]2C[C@H]1O` [Compound 11, 17S,20-dimethyl-6S-PGI1 alcohol], the results for the inhibition in vivo at 0.5 mg/kg in series [1] (setting [8]) and in series [1] (setting [9]) were 73.3% and 65.2%, respectively. The compound also displayed an LD50 at 336 h in series [3] of over 50 mg/kg.
Turning to `CCCC[C@H](C)C[C@H](O)/C=C/[C@@H]1[C@H]2CC(CCCCC(=O)OC)=N[C@H]2C[C@H]1O` [Compound 8, 17S,20-dimethyl-6,9α-nitrilo-PGI1 methyl ester], in series [2] (1000 μg/kg per administration), the “inhibition, GOT” value is on record as 68.7%; the “inhibition, GPT” value stood at 76.1%; the “inhibition, bilirubin” value was 45.8%. Further, the inhibition in vivo at 1 mg/kg in series [1] (setting [10]) worked out at 41.1%. In addition, the inhibition in vivo at 1 mg/kg in series [1] (setting [11]) stood at 14.5%. Besides, the inhibition in vivo at 0.5 mg/kg in series [1] (setting [8]) amounted to 65.6%. For the same compound, in series [1] (setting [9]), the inhibition in vivo at 0.5 mg/kg was determined as 58.6%. The same compound returned an LD50 at 336 h in series [3] of 40 to 100 mg/kg. Further, in series [4] (1000 μg/kg per administration), the “inhibition rate, GOT 24 hr after” value is reported as 40.2%; the “inhibition rate, GPT 24 hr after” value is 32.6%; the “inhibition rate, bilirubin 24 hr after” value came out at 12.1%; the “inhibition rate, GOT 48 hr after” value was found to be 57.2%. For the same compound, in series [4] (1000 μg/kg per administration), the “inhibition rate, GPT 48 hr after” value was determined as 47.6% and the “inhibition rate, bilirubin 48 hr after” value amounted to 11.5%.
Regarding `CCCC1CCC(C(O)/C=C/[C@@H]2[C@H]3CC(CCCCCO)=N[C@H]3C[C@H]2O)C1` (single isomer, unassigned) [Compound 13, 15-(3-propylcyclopentyl)-16,17,18,19,20-pentanor-6,9α-nitrilo-PGI1 alcohol], the inhibition in vivo at 1 mg/kg in series [1] (setting [10]) turned out to be 53.6%; in series [1] (setting [11]), 58.2%.
The matching figures for `CCCC[C@H](C)C[C@H](O)/C=C/[C@@H]1[C@H]2CC(CC/C=C/C(=O)OC)O[C@H]2C[C@H]1O` (stereo partly drawn) [Compound 7, 17S,20-dimethyl-trans-Δ^2-6RS-PGI1 methyl ester]: 58% and 42.7%.
`CCCC[C@H](C)[C@H](O)/C=C/[C@H]1[C@H](O)CC(=O)[C@@H]1CC(=O)CCCCC(=O)OC` [Compound 1, 16S-methyl-6-oxo-PGE1 methyl ester]: the inhibition in vivo at 0.1 mg/kg in series [1] (setting [10]) came out at 59.9%; in series [1] (setting [11]), 53.5%. Also, the inhibition in vivo at 0.02 mg/kg in series [1] (setting [8]) was 27.8%; in series [1] (setting [9]), 16.3%.

The LD50 is the dose expected to kill half of the subjects tested. Read a low LD50 as greater toxicity.
